Laboratory results taken from article PMC9326216, “Treatment of Cardiovascular Dysfunction with PDE3-Inhibitors in Moderate and Severe Hypothermia—Effects on Cellular Elimination of Cyclic Adenosine Monophosphate and Cyclic Guanosine Monophosphate” (Frontiers in Physiology, 2022).
Like-named read-outs stand apart in the source and are kept apart here.

How the values were obtained:
ABCC4 = molecular target: T1, ABCC4 (Homo sapiens, UniProt O15439); assay: biochemical; assay type: biochemical
T1 sequence (O15439 1-1325): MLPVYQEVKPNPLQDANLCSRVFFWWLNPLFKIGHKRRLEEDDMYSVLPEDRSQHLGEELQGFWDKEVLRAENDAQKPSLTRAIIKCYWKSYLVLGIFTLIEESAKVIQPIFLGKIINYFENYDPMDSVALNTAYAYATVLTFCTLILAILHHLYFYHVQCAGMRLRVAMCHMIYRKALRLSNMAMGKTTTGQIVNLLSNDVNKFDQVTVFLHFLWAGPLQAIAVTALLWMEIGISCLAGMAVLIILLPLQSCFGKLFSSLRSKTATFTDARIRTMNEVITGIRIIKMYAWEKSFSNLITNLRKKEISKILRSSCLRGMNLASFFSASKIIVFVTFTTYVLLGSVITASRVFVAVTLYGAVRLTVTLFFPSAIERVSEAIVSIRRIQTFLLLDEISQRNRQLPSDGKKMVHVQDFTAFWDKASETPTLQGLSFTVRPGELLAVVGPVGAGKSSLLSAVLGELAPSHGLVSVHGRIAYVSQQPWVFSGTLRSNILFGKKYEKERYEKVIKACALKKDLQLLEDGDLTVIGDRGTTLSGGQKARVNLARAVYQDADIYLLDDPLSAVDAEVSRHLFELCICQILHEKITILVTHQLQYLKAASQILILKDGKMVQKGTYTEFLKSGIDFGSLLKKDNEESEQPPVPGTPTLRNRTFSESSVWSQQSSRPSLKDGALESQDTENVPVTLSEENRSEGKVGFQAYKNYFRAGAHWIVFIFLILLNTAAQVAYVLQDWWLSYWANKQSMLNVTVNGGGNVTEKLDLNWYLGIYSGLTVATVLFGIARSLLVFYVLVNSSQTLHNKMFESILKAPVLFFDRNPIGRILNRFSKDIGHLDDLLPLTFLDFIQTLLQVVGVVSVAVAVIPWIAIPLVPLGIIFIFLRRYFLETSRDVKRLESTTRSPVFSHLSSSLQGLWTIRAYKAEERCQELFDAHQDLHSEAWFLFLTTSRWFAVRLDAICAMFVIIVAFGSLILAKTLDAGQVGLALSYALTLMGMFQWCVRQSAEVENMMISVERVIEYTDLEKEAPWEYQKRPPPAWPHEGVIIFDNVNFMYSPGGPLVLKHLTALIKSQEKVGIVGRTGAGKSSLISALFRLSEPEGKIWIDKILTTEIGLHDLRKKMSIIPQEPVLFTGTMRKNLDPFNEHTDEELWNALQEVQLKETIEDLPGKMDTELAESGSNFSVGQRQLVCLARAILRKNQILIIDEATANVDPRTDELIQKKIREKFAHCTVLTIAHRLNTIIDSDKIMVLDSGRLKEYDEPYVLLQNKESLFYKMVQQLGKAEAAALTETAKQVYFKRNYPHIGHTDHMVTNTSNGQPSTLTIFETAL
Procedure: (§1) Freshly collected EDTA blood from healthy donors (n = 35) was prepared at 0°C–4°C, starting by separating the erythrocytes from plasma by centrifugation at 2,300 g for approximately 15 min. […] Lysis followed thereafter, with ten volumes of 5 mM Tris-HCl, 0.5 mM EGTA, 4 mM KCl (pH 8.1) and washed by repeated centrifugation at 20,000 g for 20 min and resuspension in the same buffer. Vesiculation was initiated by adding 39 volumes of a […] buffer ([…] Tris-HCl, pH 8.2) to one volume of cell suspension and completed by forcing the solution five times through a 27-gauge syringe needle to promote homogenization of the membranes. […] The resulting IOVs, which still contained ABC-transporters in the membrane, enabled us to control the intracellular environment, in this case the surrounding medium, and collect the cyclic nucleotides within. […] Radioactive labeled (^3H)-cAMP or (^3H)-cGMP (Perkin Elmer, Boston, MA, United States) were added to the incubation solutions in the concentration 20 and 2 μM, respectively, depending on the transporter examined, together with the appointed study drug in concentrations up to 1 mM. […] Next step was to collect the IOVs, which was done by filtration through a nitrocellulose membrane (Bio-Rad Laboratories, Feldkirchen, Germany), and then drying it. The resulting collection of radioactivity upon the filter, was later quantified by using a Packard TopCount NXT (Packard, Downers Grove, IL, United states) after adding scintillation fluid (MicroScint-O, PerkinElmer, Groningen, Netherlands).
(§2) IC50 and Ki values were calculated for each of the drugs, both for their ability to inhibit cAMP- and cGMP- efflux, as well as PDE3 and PDE5 activity. […] Inhibition curves were created accordingly, both with and without adjustment for normothermic control.

ABCC5 = assay type: biochemical
Procedure: as §1, §2

PDE3 = conditions: ref Pathak et al., 2013; cited from earlier work
Sequence of PDE3 (Q14432 whole entry): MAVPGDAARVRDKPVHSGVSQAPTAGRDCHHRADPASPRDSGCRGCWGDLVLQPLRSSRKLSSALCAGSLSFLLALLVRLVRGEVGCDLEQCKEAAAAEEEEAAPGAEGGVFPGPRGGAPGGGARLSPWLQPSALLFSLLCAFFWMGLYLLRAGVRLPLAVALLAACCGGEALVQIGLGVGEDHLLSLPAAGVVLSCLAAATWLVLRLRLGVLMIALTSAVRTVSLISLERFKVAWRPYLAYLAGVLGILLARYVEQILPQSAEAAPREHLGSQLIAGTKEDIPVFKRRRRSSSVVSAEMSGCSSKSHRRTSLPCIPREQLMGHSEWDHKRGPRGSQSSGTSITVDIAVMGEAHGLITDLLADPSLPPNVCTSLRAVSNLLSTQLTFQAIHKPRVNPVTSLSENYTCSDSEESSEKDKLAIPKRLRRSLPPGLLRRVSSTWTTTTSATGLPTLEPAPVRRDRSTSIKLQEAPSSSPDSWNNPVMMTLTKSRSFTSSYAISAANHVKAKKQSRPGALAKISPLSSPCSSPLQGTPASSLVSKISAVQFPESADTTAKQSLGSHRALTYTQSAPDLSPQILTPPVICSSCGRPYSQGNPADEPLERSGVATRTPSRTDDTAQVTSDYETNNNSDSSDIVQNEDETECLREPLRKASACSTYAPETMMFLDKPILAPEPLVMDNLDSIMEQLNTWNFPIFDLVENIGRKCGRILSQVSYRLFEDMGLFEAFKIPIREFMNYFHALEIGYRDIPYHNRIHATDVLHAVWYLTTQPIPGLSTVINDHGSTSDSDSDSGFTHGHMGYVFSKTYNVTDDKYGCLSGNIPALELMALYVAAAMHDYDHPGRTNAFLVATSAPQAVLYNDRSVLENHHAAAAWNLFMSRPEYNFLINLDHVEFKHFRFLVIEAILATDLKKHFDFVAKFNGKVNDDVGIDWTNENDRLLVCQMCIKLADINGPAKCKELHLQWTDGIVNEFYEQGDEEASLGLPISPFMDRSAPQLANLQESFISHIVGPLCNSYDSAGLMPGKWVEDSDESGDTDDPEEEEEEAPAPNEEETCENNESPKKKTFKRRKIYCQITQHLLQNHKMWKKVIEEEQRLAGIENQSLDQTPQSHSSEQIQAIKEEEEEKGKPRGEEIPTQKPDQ

Structure (SMILES): Nc1cc(-c2ccncc2)c[nH]c1=O [Amrinone]
- IC50 (ABCC4; 28°C, cAMP-efflux, inside-out vesicles, 20 µM 3H-cAMP, 60 min, read-out: ABCC4 IC50): 8.42 ± 4.81 µM
- Ki (ABCC4; 28°C, cAMP-efflux, inside-out vesicles, read-out: ABCC4 Ki): 5.11 ± 2.91 µM
- IC50 (ABCC4; 32°C, cAMP-efflux, inside-out vesicles, 20 µM 3H-cAMP, 60 min, read-out: ABCC4 IC50): 5.49 ± 2.25 µM
- Ki (ABCC4; 32°C, cAMP-efflux, inside-out vesicles, read-out: ABCC4 Ki): 3.33 µM
- IC50 (ABCC4; 34°C, cAMP-efflux, inside-out vesicles, 20 µM 3H-cAMP, 60 min, read-out: ABCC4 IC50): 1.21 ± 0.1 µM
- Ki (ABCC4; 34°C, cAMP-efflux, inside-out vesicles, read-out: ABCC4 Ki): 0.73 ± 0.058 µM
- IC50 (ABCC4; 37°C, cAMP-efflux, inside-out vesicles, 20 µM 3H-cAMP, 60 min, read-out: ABCC4 IC50): 4.65 ± 3.21 µM
- Ki (ABCC4; 37°C, cAMP-efflux, inside-out vesicles, read-out: ABCC4 Ki): 2.82 µM

Structure (SMILES): C[C@@H]1CC(=O)NN=C1c1ccc(NN=C(C#N)C#N)cc1 [Levosimendan]
- Drug selectivity (IC50)/(IC50): (cAMP-efflux)/(PDE3) inhibition (ABCC4; 28°C): 270.65
- IC50 (ABCC4; 28°C, Table 3, read-out: ABCC5 IC50 (Table 3)): 27.2 ± 21.3 µM
- Ki (ABCC4; 28°C, Table 3, read-out: ABCC5 Ki (Table 3)): 16.5 ± 12.9 µM
- Drug selectivity (IC50)/(IC50): (cAMP-efflux)/(PDE3) inhibition (ABCC4; 28°C, listed as L): 270.7
- Drug selectivity (IC50)/(IC50): (cAMP-efflux)/(PDE3) inhibition (ABCC4; 32°C): 85.98
- IC50 (ABCC4; 32°C, Table 3, read-out: ABCC5 IC50 (Table 3)): 16.5 ± 5.56 µM
- Ki (ABCC4; 32°C, Table 3, read-out: ABCC5 Ki (Table 3)): 10 ± 3.37 µM
- Drug selectivity (IC50)/(IC50): (cAMP-efflux)/(PDE3) inhibition (ABCC4; 34°C): 43.45
- IC50 (ABCC4; 34°C, Table 3, read-out: ABCC5 IC50 (Table 3)): 12.7 ± 6.6 µM
- Ki (ABCC4; 34°C, Table 3, read-out: ABCC5 Ki (Table 3)): 7.73 ± 4 µM
- Drug selectivity (IC50)/(IC50): (cAMP-efflux)/(PDE3) inhibition (ABCC4; 37°C): 28.76
- IC50 (ABCC4; 37°C, Table 3, read-out: ABCC5 IC50 (Table 3)): 9.41 ± 5.91 µM
- Ki (ABCC4; 37°C, Table 3, read-out: ABCC5 Ki (Table 3)): 5.71 ± 3.58 µM
- Drug selectivity (IC50)/(IC50): (cGMP-efflux)/(PDE5) inhibition (ABCC5; 20°C): 0.045
- Drug selectivity (IC50)/(IC50): (cGMP-efflux)/(PDE5) inhibition (ABCC5; 24°C): 0.124
- Drug selectivity (IC50)/(IC50): (cGMP-efflux)/(PDE5) inhibition (ABCC5; 28°C): 0.065
- Drug selectivity (IC50)/(IC50): (cGMP-efflux)/(cAMP-efflux) inhibition (ABCC5; 28°C): 0.44
- Drug selectivity (IC50)/(IC50): (cGMP-efflux)/(PDE5) inhibition (ABCC5; 32°C): 0.081
- Drug selectivity (IC50)/(IC50): (cGMP-efflux)/(cAMP-efflux) inhibition (ABCC5; 32°C): 0.80
- Drug selectivity (IC50)/(IC50): (cGMP-efflux)/(PDE5) inhibition (ABCC5; 34°C): 0.093
- Drug selectivity (IC50)/(IC50): (cGMP-efflux)/(cAMP-efflux) inhibition (ABCC5; 34°C): 1.09
- Drug selectivity (IC50)/(IC50): (cGMP-efflux)/(PDE5) inhibition (ABCC5; 37°C): 0.184
- Drug selectivity (IC50)/(IC50): (cGMP-efflux)/(cAMP-efflux) inhibition (ABCC5; 37°C): 3.03
- Concentration at which it acts as a PDE3 inhibitor (PDE3): > 0.3 µM
